Data on nine compounds can be found in US20050282863A1, “Novel-N substituted dihydrobenzothiepino, dihydrobenzoxepino and tetrahydro benzocyclohepta indoles as selective estrogen receptor modulators” (Council of Scientific & Industrial Research, priority 2004, published 2005).

In one series the test system is adult female rats. As to the kind of experiment: Post-coital antifertility efficacy in adult female rats. The class given is in vivo, rat. As to conditions: daily dose 10 mg/kg, oral, days 1-7 post-coitum. From the text: Adult female rats are caged overnight with coeval males of proven fertility and their vaginal smears are checked on the following morning. The day of presence of spermatozoa in the vaginal smear is taken as day 1 of pregnancy. Mated rats are isolated and randomized into various treatment groups and treated orally with the compound of invention or the vehicle on days 1-7/1-5 post-coitum. Animals of all the groups are autopsied on day 10 post-coitum and number and status of corpora lutea and implantation sites in each rat are recorded. The compounds of the present invention are considered active if there is complete absence of implantations in the uterus of all rats, in comparison to presence of normal implantations in the uterus of rats of vehicle control group.

The subject of series [1] is chick fetal bones in culture. The series is described as follows: Inhibition in PTH-induced resorption of 45Ca from chick fetal bones in culture (antiresorptive activity in vitro). The class given is cell-based. As to conditions: Gallus gallus, 96 h, 100 μM; PTH-induced 45Ca resorption, 96 h culture; read-out: T/C ratio. On the procedure:
5 μl of each concentration are used for evaluation of antiresorptive activity in vitro. In control experiments, 5 μl of appropriate solvent is used in lieu of the test compound. Femur bones are isolated from chick embryos on day 11 post-ovulation. The adhering soft connective tissue is completely removed. Each femur bone is then placed in a drop of phosphate buffered saline (PBS) and is transferred to BGJb culture medium containing ^45CaCl2 and incubated for 2 h. Labeled femur bones are washed 2-3 times with PBS and transferred to BGJb medium containing parathyroid hormone and cultured for 96 h in the presence or absence of the compound of invention or the vehicle in BGJb medium. Contralateral femur of each fetus serves as corresponding control. Culture medium with the respective treatment in each well is changed after 48 h. On termination of the culture at 96 h, bones are transferred to 0.1 N HCl for 24 h. Radioactivity due to ^45Ca in the spent medium collected at 48 and 96 h of culture and HCl extract at 96 h of culture is quantified by Liquid Scintillation Spectrophotometer in 10 ml of the scintillation fluid. Bone resorbing activity is expressed as percentage of ^45Ca released into the culture medium and the effect of the compound of invention as percent of the corresponding contra-lateral control or T/C ratio as shown below: [formula]
Appropriate solvents are selected from solvents like water, physiological saline, phosphate buffered saline, phosphate buffer, DMSO alone or in a suitable combination thereof.

The subject of a further series is MCF-7 cells. The series is described as follows: Antiproliferative/cytotoxic activity in cultured MCF-7 cells (SRB assay). It counts as cell-based. As to conditions: Homo sapiens, MCF7, 48 h, read-out: LC50, Test-4; MCF-7, 48 h. On the procedure:
The procedure is based on the following methods: New calorimetric assay for anticancer drug screening, Skehan et al., J Natn Cancer Inst, 82,1107, 1990 and Feasibility of a high-flux anticancer drug screen using a diverse panel of cultured human tumor cell lines, J Natn Cancer Inst, 83,757, 1991.
A fully confluent flask of MCF-7 cells in trypsinized and 10^4 cells/well are plated in a 96 welled flat bottomed plate in 200 μl Minimum Essential Medium (MEM), pH 7.4 and allowed to attach for 24 h at 37° C. in a humidified CO2 incubator. Subsequently, the compound of invention dissolved in DMSO or ethanol is added at a specified concentration and further incubated for 48 h as before. The cells are then fixed in 50 μl cold 50% TCA and incubated for 1 h at 4° C. The supernatant is discarded and the plate is washed five times with deionized water and air-dried. 100 μl of 0.4% (w/v) Sulforhodamine B (SRB) in 1% acetic acid is added to each well and incubated at room temperature for 30 minutes. Unbound SRB is removed by five washes with chilled 1% acetic acid and the plate is air-dried. 200 μl of unbuffered 10 mM Tris base is added to solublize the bound stain for 5 minutes at room temperature and O.D. is read at 560 nm in a plate reader. The graph is plotted between O.D. and concentration and LC50 is calculated with respect to tamoxifen, which is used as a positive control.
(The SRB assay estimates cell density from bound dye.)

For series [2], the system named is immature ovariectomized rats. As to the kind of experiment: Estrogen agonistic activity: increase in uterine weight in immature ovariectomized rats. The class given is in vivo, rat. As to conditions: Rattus norvegicus, 72 h, daily dose 10 mg/kg, 3 days; percent of ovariectomized + vehicle group. On the procedure:
Twenty-one-day-old immature female rats are bilaterally ovariectomized under light ether anaesthesia and, after post-operative rest for 7 days, are randomized into different treatment groups. Each rat receives the compound of the invention once daily for 3 consecutive days on days 28-30 of age. A separate group of animals receiving only the vehicle for similar duration serves as control. A autopsy 24 h after the last treatment on day 31 of age, vaginal smear of each rat is taken and uterus is carefully exised, gently blotted, weighed and fixed for histology and histomorphometry using image analysis. Premature opening of vagina, cornification of vaginal epitelium, increase in uterine fresh weight, total uterine and endometrial area and uterine luminal epithelial cell height are taken as parameters for evaluation of estrogen agonistic activity in comparision to rats of vehicle control group.

Series [3] deals with immature ovariectomized rats. As to the kind of experiment: Estrogen antagonistic activity: inhibition in 17α-ethynylestradiol induced uterine weight gain in immature ovariectomized rats. It counts as in vivo, rat. As to conditions: Rattus norvegicus, 72 h; daily dose 10 mg/kg with 0.02 mg/kg 17-alfa-ethynylestradiol, 3 days; read-out: Percent inhibition in 17α-ethynylestradiol induced uterine weight gain. On the procedure: Twenty-one-day-old immature female rats are bilaterally ovariectomized under light ether anaesthesia and after post-operative rest for 7 days, are randomized into different treatment groups. Each rat receives the compounds of the invention and 0.02 mg/kg dose of 17-alfa-ethynylestradiol in 10% ethanol-distilled water once daily for 3 consecutive days on days 28-30 of age. A separate group of animals receiving only 17-alfa-ethynylestradiol (0.02 mg/kg) in 10% ethanol-distilled water for similar duration are used for comparison. At autopsy on day 31 of age, vaginal smear of each rat is taken and uterus is carefully excised, gently blotted, weighed and fixed for histology and histomorphometry using image analysis. Inhibition in 17-alfa-ethynylestradiol-induced premature opening of vagina, cornification of vaginal epithelium, increase in uterine fresh weight, total uterine and endometrial area and uterine luminal epithelial cell height are taken as parameters for evaluation of estrogen antagonistic activity.

A further series deals with T1, estrogen receptors (Rattus norvegicus, UniProt P06211).
T1 construct: Aliquot of uterine cytosol (200 μl; 2 uteri per ml) prepared in TEA buffer; from tissue; host or cells: uterine cytosol of immature estradiol-primed 20-21 day old rats
T1 sequence (P06211 1-600): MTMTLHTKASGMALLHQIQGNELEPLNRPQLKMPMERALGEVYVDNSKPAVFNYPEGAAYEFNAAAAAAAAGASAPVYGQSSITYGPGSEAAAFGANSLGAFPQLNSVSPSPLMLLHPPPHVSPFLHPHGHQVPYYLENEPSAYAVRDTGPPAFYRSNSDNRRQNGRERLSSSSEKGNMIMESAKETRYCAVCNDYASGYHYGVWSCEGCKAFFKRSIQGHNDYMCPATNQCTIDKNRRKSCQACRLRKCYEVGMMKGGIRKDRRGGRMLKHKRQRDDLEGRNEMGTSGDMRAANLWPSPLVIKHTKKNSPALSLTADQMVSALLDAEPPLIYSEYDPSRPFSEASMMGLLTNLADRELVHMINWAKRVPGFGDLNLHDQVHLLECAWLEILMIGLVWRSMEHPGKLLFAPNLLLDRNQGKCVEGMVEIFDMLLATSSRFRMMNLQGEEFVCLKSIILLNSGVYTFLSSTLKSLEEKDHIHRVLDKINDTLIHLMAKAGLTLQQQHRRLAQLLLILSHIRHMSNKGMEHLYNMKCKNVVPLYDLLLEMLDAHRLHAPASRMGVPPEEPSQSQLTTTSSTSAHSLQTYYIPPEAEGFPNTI
As to the kind of experiment: Relative binding affinity (RBA) to estrogen receptors, 3H-estradiol competition assay. Also noted: key: % of 17-beta-estradiol binding affinity (estradiol = 100). As to conditions: relative to 17-beta-estradiol (=100, percentage value); rat uterine cytosol, 3H-E2, 18 hrs at 4° C. On the procedure:
The relative binding affinity (RBA) of the compounds for estrogen receptor is determined by competition assay, employing ^3H-estradiol (^3H-E2) as the radioligand. The test ligands and ^3H-E2 are incubated at 4° C. with cystol estrogen receptors obtained from uteri of immature estradoil-primed (1 μg/rat 24 h before autopsy) 20-21 days old rats. Aliquot of uterine cytosol (200 μl; 2 uteri per ml) prepared in TEA buffer (10 mM Tris, 1.5 mM EDTA, 0.02% sodium azide, pH 7.4) are incubated in duplicate with a fixed concentration of ^3H-E2 in the absence or presence of various concentrations of the competitor substance dissolved in 30 μl of the TEA buffer containing DMF as co-solvent (final concentration of DMF in the incubation mixture never exceeded 5%) for 18 hrs at 4° C. At the end of this period, dextran coated charcoal (5% Norit 0.5% dextran) suspension in 100 μl of TEA buffer is added to each tube, briefly vortexed and allowed to stand for 15 minutes at 4° C. The mixture is centrifuged at 800 g for 10 minutes and the supernatants counted for radioactivity in 10 ml of a dioxane-based scintillation fluid. RBA of the text compound is computed from a graph plotted between percent bound radioactivity verses log concentration of the test substance. […] This when multiplied with 100 gives the percentage value designated as RBA.

Some results are limits rather than exact numbers.

`c1ccc2c(c1)SCCc1c-2n(CCN2CCCCC2)c2ccccc12` [Example number 5, 12-[2-(Piperidine-1-yl)ethyl]-6,7-dihydro-12H-benzothiepino [5,4-b]indole] came in with a melting point of 118 °C. Also, the “% Efficacy” value in the series on adult female rats was “Inactive”.

`c1ccc2c(c1)SCCc1c-2n(CCCCCN2CCCCC2)c2ccccc12` [Example number 11, 12-[5-(Piperidine-1-yl)pentyl]-6,7-dihydro-12H-benzothiepino [5,4-b]indole]: in series [1], the activity at 100 µM is 77%. Further, in the series with MCF-7 cells, the CC50 is 8.3 µM. In the series on adult female rats (Rattus norvegicus, 240 h), this compound registered a responders at 10 mg/kg of 50%. In addition, the change in vivo at 10 mg/kg in series [2] came out at 50%. In addition, the inhibition in vivo at 10 mg/kg/day in series [3] worked out at 2%.

With `Oc1ccc2c(c1)c1c(n2CCCCCN2CCCC2)-c2ccccc2SCC1` [Example number 30, 9-Hydroxy-12-[5-(pyrrolidine-1-yl)pentyl]-6,7-dihydro-12H-benzothiepino [5,4-b]indole], the melting point fell in the range of 217 to 219 °C. For the same compound, in the series with adult female rats, the “% Efficacy” value is “Inactive”. For the same compound, at estrogen receptors, the RBA was <0.001.

On to `CCCCN(C)CCCCCn1c2c(c3cc(O)ccc31)CCSc1cc(O)ccc1-2` [Example number 37], for which the melting point lay within 134 to 136 °C. Moreover, the RBA on estrogen receptors came out at 0.36.

The compound `c1ccc2c(c1)SCCc1c-2n(Cc2ccc(OCCCN3CCCCC3)cc2)c2ccccc12` [Example number 41, 12-[4-(3-Piperidin-1-yl-propyloxy)benzyl]-6,7-dihydro-12H-benzothiepino [5,4-b]indole] displayed a melting point of 70 to 71 °C. Further, the activity at 100 µM in series [1] worked out at 108%. Further, the “% Efficacy” value in the series on adult female rats is reported as “Inactive”. Also, the change in vivo at 10 mg/kg in series [2] stood at 42.9%. Further, the inhibition in vivo at 10 mg/kg/day in series [3] is 6.41%.

Take `c1ccc2c(c1)OCCc1c-2n(CCN2CCCCC2)c2ccccc12` [Example number 45, 12-[2-(Piperidine-1-yl)ethyl]-6,7-dihydro-12H-benzoxepino[5,4-b]indole]: the melting point worked out at 103 °C. In addition, the “% Efficacy” value with adult female rats is “Inactive”.

Take `c1ccc2c(c1)OCCc1c-2n(CCCN2CCCCC2)c2ccccc12` [Example number 47, 12-[3-(Piperidine-1-yl)propyl]-6,7-dihydro-12H-benzoxepino[5,4-b]indole]: the melting point is 65 to 66 °C. Besides, in the series on adult female rats, the “% Efficacy” value is given as “Inactive”. For the same compound, the change in vivo at 10 mg/kg in series [2] came out at 8.31%. Besides, the inhibition in vivo at 10 mg/kg/day in series [3] is 17.2%.

On to `c1ccc2c(c1)OCCc1c-2n(Cc2ccc(OCCN3CCCCC3)cc2)c2ccccc12` [Example number 56, 12-[4-(2-Piperidin-1-yl-ethoxy)benzyl]-6,7-dihydro-12H-benzoxepino[5,4-b]indole], for which the activity at 100 µM in series [1] worked out at 103%. Besides, the “% Efficacy” value in the series on adult female rats is given as “Inactive”. Further, the change in vivo at 10 mg/kg in series [2] was 15.4%. For the same compound, in series [3], the inhibition in vivo at 10 mg/kg/day was determined as 12.8%.

In turn, `c1ccc2c(c1)OCCc1c-2n(Cc2ccc(OCCCN3CCCCC3)cc2)c2ccccc12` [Example number 58, 12-[4-(3-Piperidin-1-yl-propyloxy)benzyl]-6,7-dihydro-12H-benzoxepino[5,4-b]indole] had a melting point of 129 to 130 °C. The activity at 100 µM in series [1] was 98%. In the series with adult female rats, the “% Efficacy” value was “Inactive”. The change in vivo at 10 mg/kg in series [2] worked out at 7.85%. Also, the inhibition in vivo at 10 mg/kg/day in series [3] was determined as 11.4%.

The melting point is the temperature, or range, at which the solid turns liquid.
